The NIST ThermoML archive (doi:10.1016/j.jct.2017.03.027)
± gives the expanded uncertainty stated by the source.

Assays:
[1] = xn = mol fraction of the nth substance listed; conditions: 100 kPa, Liquid, Vibrating tube method
[2] = molar heat capacity at constant pressure; xn = mol fraction of the nth substance listed; conditions: 100 kPa, Liquid, Large sample (1 g) DSC

Cc1ccc(C(C)C)cc1 [1-(1-methylethyl)-4-methylbenzene] + CCO
Conditions | mass density, 298.15 K [kg/m3] | mass density, 308.15 K [kg/m3] | mass density, 318.15 K [kg/m3] | mass density, 328.15 K [kg/m3] | molar heat capacity at constant pressure, 298.6 K [J/K/mol] | molar heat capacity at constant pressure, 308.5 K [J/K/mol] | molar heat capacity at constant pressure, 318.5 K [J/K/mol] | molar heat capacity at constant pressure, 328.4 K [J/K/mol]
[1], x1 = 0.0494 | 793.49 ± 0.71 | 784.81 ± 0.71 | 775.96 ± 0.71 | 766.9 ± 0.71 | – | – | – | –
[1], x1 = 0.0995 | 800.72 ± 0.71 | 792.02 ± 0.71 | 783.15 ± 0.71 | 774.08 ± 0.71 | – | – | – | –
[1], x1 = 0.2 | 812.35 ± 0.71 | 803.65 ± 0.71 | 794.79 ± 0.71 | 785.71 ± 0.71 | – | – | – | –
[1], x1 = 0.3009 | 821.26 ± 0.71 | 812.6 ± 0.71 | 803.77 ± 0.71 | 794.75 ± 0.71 | – | – | – | –
[1], x1 = 0.4037 | 828.42 ± 0.71 | 819.8 ± 0.71 | 811.02 ± 0.71 | 802.06 ± 0.71 | – | – | – | –
[1], x1 = 0.5034 | 834.18 ± 0.71 | 825.62 ± 0.71 | 816.91 ± 0.71 | 808.04 ± 0.71 | – | – | – | –
[1], x1 = 0.6023 | 838.73 ± 0.71 | 830.22 ± 0.71 | 821.58 ± 0.71 | 812.79 ± 0.71 | – | – | – | –
[1], x1 = 0.7017 | 842.86 ± 0.71 | 834.43 ± 0.71 | 825.88 ± 0.71 | 817.21 ± 0.71 | – | – | – | –
[1], x1 = 0.802 | 846.53 ± 0.71 | 838.18 ± 0.71 | 829.75 ± 0.71 | 821.21 ± 0.71 | – | – | – | –
[1], x1 = 0.897 | 849.61 ± 0.71 | 841.37 ± 0.71 | 833.06 ± 0.71 | 824.68 ± 0.71 | – | – | – | –
[1], x1 = 0.9509 | 851.34 ± 0.71 | 843.19 ± 0.71 | 834.99 ± 0.71 | 826.74 ± 0.71 | – | – | – | –
[1], x1 = 1 | 852.93 ± 0.71 | 844.89 ± 0.71 | 836.81 ± 0.71 | 828.69 ± 0.71 | – | – | – | –
[2], x1 = 0.0494 | – | – | – | – | 121.2 ± 2 | 126.1 ± 2.1 | 130.8 ± 2.1 | 135.6 ± 2.2
[2], x1 = 0.0995 | – | – | – | – | 130 ± 2.1 | 134.7 ± 2.2 | 140.1 ± 2.3 | 145.9 ± 2.4
[2], x1 = 0.2 | – | – | – | – | 146.5 ± 2.4 | 152.2 ± 2.5 | 157.8 ± 2.6 | 163.8 ± 2.7
[2], x1 = 0.3009 | – | – | – | – | 162.2 ± 2.6 | 168.5 ± 2.7 | 174.7 ± 2.8 | 181 ± 2.9
[2], x1 = 0.4037 | – | – | – | – | 177.7 ± 2.9 | 183.8 ± 3 | 190.2 ± 3.1 | 197 ± 3.2
[2], x1 = 0.5034 | – | – | – | – | 192.6 ± 3.1 | 199 ± 3.2 | 205.4 ± 3.3 | 211.9 ± 3.4
[2], x1 = 0.6023 | – | – | – | – | 205.5 ± 3.3 | 211.8 ± 3.4 | 219.4 ± 3.6 | 225.1 ± 3.7
[2], x1 = 0.7017 | – | – | – | – | 217.6 ± 3.5 | 224.3 ± 3.6 | 230.7 ± 3.8 | 236.9 ± 3.9
[2], x1 = 0.802 | – | – | – | – | 229.2 ± 3.7 | 235.3 ± 3.8 | 240.9 ± 3.9 | 247 ± 4
[2], x1 = 0.897 | – | – | – | – | 238.6 ± 3.9 | 243.1 ± 4 | 248.4 ± 4 | 253.8 ± 4.1
[2], x1 = 0.9509 | – | – | – | – | 240.2 ± 3.9 | 243.9 ± 4 | 248.9 ± 4 | 254.1 ± 4.1
[2], x1 = 1 | – | – | – | – | 240.3 ± 3.9 | 244.7 ± 4 | 249.4 ± 4.1 | 254.4 ± 4.1
